# Measurements published in patent US20210045385A1, “PYRIDAZINONE-SUBSTITUTED KETOXIMES AS HERBICIDES” (FMC Corporation, priority 2018, published 2021).
# Assays:
# Type in all cases: in vivo
# rice (Oryza sativa) = test: Test D flooded paddy test, visual plant response rating; conditions: 250 g ai/ha, scale 0 to 100 (0 no effect, 100 complete control), 13 to 15 d
# How it was run: (§1)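 Rating is visual, on a 0 (no effect) to 100 (complete control) scale versus controls, taken 13 to 15 d after treatment in a greenhouse. Treatment went into paddy water kept 3 cm above the soil surface, with plants at the 2-leaf stage.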
# [1] = system: barnyardgrass (Echinochloa crus-galli); test: as above; conditions: 250 g ai/ha, scale 0 to 100 (0 no effect, 100 complete control), 13 to 15 d
# How it was run: as §1
# [2] = system: sedge umbrella (small-flower umbrella sedge, Cyperus difformis); test: as above; conditions: 250 g ai/ha, scale 0 to 100 (0 no effect, 100 complete control), 13 to 15 d
# How it was run: as §1
# [3] = system: duck salad (Heteranthera limosa); test: as above; conditions: 250 g ai/ha, scale 0 to 100 (0 no effect, 100 complete control), 13 to 15 d
# How it was run: as §1
# [4] = system: wheat (Triticum aestivum); test: Test C postemergence, visual plant response rating
# How it was run: (§2)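 Visual injury on a 0 (no effect) to 100 (complete control) scale versus untreated controls, scored approximately 10 d after treatment under greenhouse conditions. Treatments used surfactant-containing non-phytotoxic solvent formulations, sprayed onto loam–sand soil preemergence or onto one- to two-leaf plants 2–10 cm tall postemergence.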
# [5] = system: Italian ryegrass (Lolium mutiflorum); test: Test C postemergence, visual plant response rating
# How it was run: as §2
# corn (Zea mays) = test: Test C postemergence, visual plant response rating
# How it was run: as §2
# [6] = system: galium (catchweed bedstraw, Galium aparine); test: Test C postemergence, visual plant response rating
# How it was run: as §2
# [7] = system: barnyardgrass (Echinochloa crus-galli); test: Test C postemergence, visual plant response rating
# How it was run: as §2
# [8] = system: ragweed (common ragweed, Ambrosia artemisiifolia); test: Test C postemergence, visual plant response rating
# How it was run: as §2
# kochia (Bassia scoparia) [9] = test: Test C postemergence, visual plant response rating
# How it was run: as §2
# [10] = system: blackgrass (Alopecurus myosuroides); test: Test C postemergence, visual plant response rating
# How it was run: as §2
# [11] = system: foxtail, giant (giant foxtail, Setaria faberi); test: Test C postemergence, visual plant response rating
# How it was run: as §2
# [12] = system: pigweed (Amaranthus retroflexus); test: Test C postemergence, visual plant response rating
# How it was run: as §2
# [13] = system: Italian ryegrass (Lolium mutiflorum); test: Test C preemergence, visual plant response rating; conditions: Test C, 0 is no effect, 100 is complete control
# How it was run: as §2
# [14] = system: barnyardgrass (Echinochloa crus-galli); test: Test C preemergence, visual plant response rating; conditions: Test C, 0 is no effect, 100 is complete control
# How it was run: as §2
# [15] = system: ragweed (common ragweed, Ambrosia artemisiifolia); test: Test C preemergence, visual plant response rating; conditions: Test C, 0 is no effect, 100 is complete control
# How it was run: as §2
# kochia (Bassia scoparia) [16] = test: Test C preemergence, visual plant response rating; conditions: Test C, 0 is no effect, 100 is complete control
# How it was run: as §2
# [17] = system: foxtail, giant (giant foxtail, Setaria faberi); test: Test C preemergence, visual plant response rating; conditions: Test C, 0 is no effect, 100 is complete control
# How it was run: as §2
# [18] = system: pigweed (Amaranthus retroflexus); test: Test C preemergence, visual plant response rating; conditions: Test C, 0 is no effect, 100 is complete control
# How it was run: as §2
# [19] = Test C, postemergence, 125 g ai/ha
Compound,"Plant response rating, Rice (Flood) (rice (Oryza sativa))","Plant response rating, Barnyardgrass (Flood) [1]","Plant response rating, Sedge, Umbrella (Flood) [2]","Plant response rating, Ducksalad (Flood) [3]","Wheat plant response rating (0 to 100 scale) ([4]; Postemergence, 31 g ai/ha)","Wheat plant response rating (0 to 100 scale) [4, 19]","Ryegrass, Italian plant response rating (0 to 100 scale) ([5]; Postemergence, 31 g ai/ha)","Ryegrass, Italian plant response rating (0 to 100 scale) [5, 19]","Corn plant response rating (0 to 100 scale) (corn (Zea mays); Postemergence, 31 g ai/ha)",Corn plant response rating (0 to 100 scale) (corn (Zea mays); [19]),"Galium plant response rating (0 to 100 scale) ([6]; Postemergence, 31 g ai/ha)","Galium plant response rating (0 to 100 scale) [6, 19]","Barnyardgrass plant response rating (0 to 100 scale) ([7]; Postemergence, 31 g ai/ha)","Barnyardgrass plant response rating (0 to 100 scale) [7, 19]","Ragweed plant response rating (0 to 100 scale) ([8]; Postemergence, 31 g ai/ha)","Ragweed plant response rating (0 to 100 scale) [8, 19]","Kochia plant response rating (0 to 100 scale) (kochia (Bassia scoparia) [9]; Postemergence, 31 g ai/ha)",Kochia plant response rating (0 to 100 scale) (kochia (Bassia scoparia) [9]; [19]),"Blackgrass plant response rating (0 to 100 scale) ([10]; Postemergence, 31 g ai/ha)","Blackgrass plant response rating (0 to 100 scale) [10, 19]",further results
CO/N=C(/c1cccc(Br)c1)c1c(O)c(C)nn(C)c1=O [Compound 234],0,0,0,0,0,0,50,70,0,0,80,90,10,30,40,80,30,70,10,0,"Foxtail, Giant plant response rating (0 to 100 scale) ([11]; Postemergence, 31 g ai/ha): 10; Foxtail, Giant plant response rating (0 to 100 scale) [11, 19]: 30; Pigweed plant response rating (0 to 100 scale) ([12]; Postemergence, 31 g ai/ha): 10; Pigweed plant response rating (0 to 100 scale) [12, 19]: 30; Ryegrass, Italian plant response rating (0 to 100 scale) ([13]; 31 g ai/ha): 40; Ryegrass, Italian plant response rating (0 to 100 scale) ([13]; 125 g ai/ha): 90; Barnyardgrass plant response rating (0 to 100 scale) ([14]; 31 g ai/ha): 0; Barnyardgrass plant response rating (0 to 100 scale) ([14]; 125 g ai/ha): 0; Ragweed plant response rating (0 to 100 scale) ([15]; 31 g ai/ha): 10; Ragweed plant response rating (0 to 100 scale) ([15]; 125 g ai/ha): 40; Kochia plant response rating (0 to 100 scale) (kochia (Bassia scoparia) [16]; 31 g ai/ha): 0; Kochia plant response rating (0 to 100 scale) (kochia (Bassia scoparia) [16]; 125 g ai/ha): 0; Foxtail, Giant plant response rating (0 to 100 scale) ([17]; 31 g ai/ha): 0; Foxtail, Giant plant response rating (0 to 100 scale) ([17]; 125 g ai/ha): 20; Pigweed plant response rating (0 to 100 scale) ([18]; 31 g ai/ha): 0; Pigweed plant response rating (0 to 100 scale) ([18]; 125 g ai/ha): 0"
CO/N=C(\c1cccc(Br)c1)c1c(O)c(C)nn(C)c1=O [Compound 239],0,0,0,0,0,0,50,60,0,0,70,90,10,30,50,70,40,60,0,0,"Foxtail, Giant plant response rating (0 to 100 scale) ([11]; Postemergence, 31 g ai/ha): 0; Foxtail, Giant plant response rating (0 to 100 scale) [11, 19]: 20; Pigweed plant response rating (0 to 100 scale) ([12]; Postemergence, 31 g ai/ha): 20; Pigweed plant response rating (0 to 100 scale) [12, 19]: 60; Ryegrass, Italian plant response rating (0 to 100 scale) ([13]; 31 g ai/ha): 10; Ryegrass, Italian plant response rating (0 to 100 scale) ([13]; 125 g ai/ha): 50; Barnyardgrass plant response rating (0 to 100 scale) ([14]; 31 g ai/ha): 0; Barnyardgrass plant response rating (0 to 100 scale) ([14]; 125 g ai/ha): 0; Ragweed plant response rating (0 to 100 scale) ([15]; 31 g ai/ha): 10; Ragweed plant response rating (0 to 100 scale) ([15]; 125 g ai/ha): 50; Kochia plant response rating (0 to 100 scale) (kochia (Bassia scoparia) [16]; 31 g ai/ha): 0; Kochia plant response rating (0 to 100 scale) (kochia (Bassia scoparia) [16]; 125 g ai/ha): 10; Foxtail, Giant plant response rating (0 to 100 scale) ([17]; 31 g ai/ha): 0; Foxtail, Giant plant response rating (0 to 100 scale) ([17]; 125 g ai/ha): 10; Pigweed plant response rating (0 to 100 scale) ([18]; 31 g ai/ha): 0; Pigweed plant response rating (0 to 100 scale) ([18]; 125 g ai/ha): 10"
Cc1nn(C)c(=O)c(/C(=N/OCCO)c2cccc3cc(Cl)ccc23)c1O [Compound 240],0,15,0,0,0,0,0,0,0,0,20,50,0,20,0,0,0,0,0,10,"Foxtail, Giant plant response rating (0 to 100 scale) ([11]; Postemergence, 31 g ai/ha): 0; Foxtail, Giant plant response rating (0 to 100 scale) [11, 19]: 0; Pigweed plant response rating (0 to 100 scale) ([12]; Postemergence, 31 g ai/ha): 70; Pigweed plant response rating (0 to 100 scale) [12, 19]: 80; Ryegrass, Italian plant response rating (0 to 100 scale) ([13]; 31 g ai/ha): 0; Ryegrass, Italian plant response rating (0 to 100 scale) ([13]; 125 g ai/ha): 0; Barnyardgrass plant response rating (0 to 100 scale) ([14]; 31 g ai/ha): 0; Barnyardgrass plant response rating (0 to 100 scale) ([14]; 125 g ai/ha): 0; Ragweed plant response rating (0 to 100 scale) ([15]; 31 g ai/ha): 0; Ragweed plant response rating (0 to 100 scale) ([15]; 125 g ai/ha): 10; Kochia plant response rating (0 to 100 scale) (kochia (Bassia scoparia) [16]; 31 g ai/ha): 0; Kochia plant response rating (0 to 100 scale) (kochia (Bassia scoparia) [16]; 125 g ai/ha): 0; Foxtail, Giant plant response rating (0 to 100 scale) ([17]; 31 g ai/ha): 10; Foxtail, Giant plant response rating (0 to 100 scale) ([17]; 125 g ai/ha): 80; Pigweed plant response rating (0 to 100 scale) ([18]; 31 g ai/ha): 50; Pigweed plant response rating (0 to 100 scale) ([18]; 125 g ai/ha): 100"
Cc1nn(C)c(=O)c(/C(=N\OC(C)C)c2cccc3cc(Cl)ccc23)c1O [Compound 241],85,90,95,85,0,0,0,0,10,0,90,100,30,60,80,100,0,20,20,40,"Foxtail, Giant plant response rating (0 to 100 scale) ([11]; Postemergence, 31 g ai/ha): 70; Foxtail, Giant plant response rating (0 to 100 scale) [11, 19]: 80; Pigweed plant response rating (0 to 100 scale) ([12]; Postemergence, 31 g ai/ha): 80; Pigweed plant response rating (0 to 100 scale) [12, 19]: 90; Ryegrass, Italian plant response rating (0 to 100 scale) ([13]; 31 g ai/ha): 0; Ryegrass, Italian plant response rating (0 to 100 scale) ([13]; 125 g ai/ha): 0; Barnyardgrass plant response rating (0 to 100 scale) ([14]; 31 g ai/ha): 10; Barnyardgrass plant response rating (0 to 100 scale) ([14]; 125 g ai/ha): 60; Ragweed plant response rating (0 to 100 scale) ([15]; 31 g ai/ha): 40; Ragweed plant response rating (0 to 100 scale) ([15]; 125 g ai/ha): 10; Kochia plant response rating (0 to 100 scale) (kochia (Bassia scoparia) [16]; 31 g ai/ha): 0; Kochia plant response rating (0 to 100 scale) (kochia (Bassia scoparia) [16]; 125 g ai/ha): 0; Foxtail, Giant plant response rating (0 to 100 scale) ([17]; 31 g ai/ha): 80; Foxtail, Giant plant response rating (0 to 100 scale) ([17]; 125 g ai/ha): 90; Pigweed plant response rating (0 to 100 scale) ([18]; 31 g ai/ha): 90; Pigweed plant response rating (0 to 100 scale) ([18]; 125 g ai/ha): 100"
